Assays:
hCB2R = hCB2R (Homo sapiens, UniProt P34972); assay: hCB2R cAMP assay; assay type: cell-based; conditions: for agonist activity at the CB2R (in words): CHO cell cAMP assay
Solubility observations = assay type: physicochemical; conditions: in the vehicle (DMSO) or under the assay conditions
panel of GPCRs = assay: GPCR off-target screen, whole panel; assay type: binding; conditions: 1 μM; selection of 24 GPCRs (Table S3)
panel of kinases = assay: Kinase off-target screen, whole panel; assay type: binding; conditions: 10 μM; 97 kinases (Table S4)
Mouse liver microsome = assay type: in vitro ADME; conditions: mouse liver microsomes, 37 °C, with NADPH

Chain of hCB2R (P34972 whole entry): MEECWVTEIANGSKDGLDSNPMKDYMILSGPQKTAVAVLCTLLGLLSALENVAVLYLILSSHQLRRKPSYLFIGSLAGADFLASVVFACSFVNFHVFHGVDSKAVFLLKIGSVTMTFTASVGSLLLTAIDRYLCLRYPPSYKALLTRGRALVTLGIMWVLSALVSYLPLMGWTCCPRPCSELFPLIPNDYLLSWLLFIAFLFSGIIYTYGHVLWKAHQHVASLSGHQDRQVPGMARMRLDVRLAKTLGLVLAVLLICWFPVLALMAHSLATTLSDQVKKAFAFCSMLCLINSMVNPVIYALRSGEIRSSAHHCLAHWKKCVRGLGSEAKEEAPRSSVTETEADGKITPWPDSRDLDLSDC

## Fc1ccccc1CSc1nnc2c(n1)[nH]c1ccccc12 [Compound 14, 3-((2′-Fluorobenzyl)thio)-5H-[1,2,4]triazino[5,6-b]indole]
hCB2R
  agonist activity at the CB2R (in words): no activity up to the highest concentrations tested

## Sc1nnc2c(n1)[nH]c1ccccc12 [Compound 9, 5H-[1,2,4]Triazino[5,6-b]indole-3-thiol]
hCB2R
  agonist activity at the CB2R (in words): no detectable agonist activity

## CN(C)c1ccc(C(=O)n2c3ccccc3c3nnc(SCc4ccccc4C#N)nc32)cc1 [Compound 78]
Solubility observations
  solubility (in words): extremely poorly soluble under the assay conditions

## N#Cc1ccccc1CSc1nnc2c(n1)[nH]c1ccccc12 [Compound 7, 3-((2′-Cyanobenzyl)thio)-5H-[1,2,4]triazino[5,6-b]indole]
Panel of GPCRs
  binding at any of the GPCRs tested: no significant binding
hCB2R
  EC50: 120 nM
Panel of kinases
  binding with any of the kinases tested: no significant binding

## CC(=O)n1c2ccccc2c2nnc(SCc3ccccc3C#N)nc21 [Compound 66, 2′(((5-Acetyl-5H-[1,2,4]triazino[5,6-b]indol-3-yl)thio)methyl)benzonitrile]
hCB2R
  agonist activity at the CB2R (in words): no detectable activity

## N#Cc1ccccc1CSc1nnc2c3ccccc3n(C(=O)c3ccccc3)c2n1 [Compound 72]
Mouse liver microsome
  MLM stability t1/2: no parent compound could be detected at the earliest time point
